Measurements: US11124785B2, “Rothia subtilisins, S8A family proteases, as therapeutic enzymes for application in gluten intolerance disorders” (TRUSTEES OF BOSTON UNIVERSITY, priority 2016, dated 2021)

Columns and labels:
[1] = test system: Suc-AAPF-pNA; test: Hydrolysis of paranitroanilide-derivatized substrate Suc-AAPF-pNA; assay type: biochemical; conditions: substrate 200 μM; enzyme 1 μg/ml (NattoK: dilution series); 50 mM TrisHCl pH 8.0, 37° C.
Description: (§1) FIG. 4A and FIG. 4B are representative graphs of the hydrolysis of the substrates: Suc-AAPF-pNA (SEQ ID NO: 4), Z-YPQ-pNA, and Z-LPY-pNA, each at 200 μM, by Rmep and subtilisin A, respectively, each at 1 μg/ml.
FIG. 8C show a representative graph of the hydrolysis of the substrate, Suc-AAPF-pNA (SEQ ID NO: 4), with a dilution series of NattoK. Suc-AAPF-pNA (SEQ ID NO: 4) was incubated […]. Hydrolysis was measured at 405 nm.
(§2) Hydrolysis of paranitroanilide-derivatized substrates—Paranitroanilide (pNA)-derivatized tripeptide substrates were chemically synthesized at >90% purity (21st Century Biochemicals, Marlborough, Mass.). The substrates obtained were Z-YPQ-pNA, Z-QQP-pNA, Z-LPY-pNA, Z-PFP-pNA, Z-PPF-pNA, where Z=benzyloxycarbonyl, Y=tyrosine, P=proline, Q=glutamine, L=leucine, and F=phenylalanine Suc-AAPF-pNA (SEQ ID NO: 4) was obtained from Sigma, where Suc=N-succinyl and A=alanine. The peptides were dissolved in 75-100% DMSO at 10 mM, and were used at a final concentration of 200 μM in 50 mM TrisHCl pH 8.0. Purified Rothia enzyme or subtilisin A from Bacillus licheniformis (Sigma) were tested at final concentrations of 1 μg/ml. Some experiments were conducted in the presence of inhibitors 4-(2-Aminoethyl) benzenesulfonyl fluoride (AEBSF), Aprotinin, E-64, EDTA, phenylmethanesulfonyl fluoride (PMSF) and Eglin C, which were tested at final concentrations of 10 mM, 0.08 mM, 0.1 mM, 1.5 mM, 1 mM, and 0.06-1.2 μM, respectively. Enzymes were preincubated with the inhibitors for 20 min before adding Suc-AAPF-pNA (SEQ ID NO: 4). Substrate hydrolysis was monitored for 10 h at 405 nm using a Genios microtiter plate reader (Tecan, Männedorf, Switzerland) in the kinetic mode at 37° C.

[2] = test system: Z-LPY-pNA; test: Hydrolysis of paranitroanilide-derivatized substrate Z-LPY-pNA; assay type: biochemical; conditions: five-fold increased enzyme concentrations (5 μg/ml) and longer incubation times
Description: as §1
FIG. 4C show a representative graph of the hydrolysis of the substrate, LPY, by Rmep and subtilisin A at 5 μg/ml and extended incubation times.
as §2, with “Some experiments were conducted in the presence of inhibitors 4-(2-Aminoethyl) benzenesulfonyl fluoride (AEBSF), Aprotinin, E-64, EDTA, phenylmethanesulfonyl fluoride (PMSF) and Eglin C, which were tested at final concentrations of 10 mM, 0.08 mM, 0.1 mM, 1.5 mM, 1 mM, and 0.06-1.2 μM, respectively. Enzymes were preincubated with the inhibitors for 20 min before adding Suc-AAPF-pNA (SEQ ID NO: 4).” left out

[3] = test system: Z-YPQ-pNA; test: Hydrolysis of paranitroanilide-derivatized substrate Z-YPQ-pNA; assay type: biochemical; conditions: substrate 200 μM, enzyme 1 μg/ml, pH 8.0; second most rapid after Suc-AAPF-pNA
Description: as §1
as §2, with “Enzymes were preincubated with the inhibitors for 20 min before adding Suc-AAPF-pNA (SEQ ID NO: 4).” left out

[4] = test system: G12 epitopes (QPQLPY) in mixed gliadins; test: G12 ELISA, gluten epitope elimination in gliadin digests; assay type: biochemical; conditions: gliadins 250 μg/ml, enzyme 57 μg/ml
Description: FIG. 8E and FIG. 8F show the assessment of the survival of epitopes in the gliadin-NattoK degradation mixture employing the R5 ELISA (FIG. 8E) or G12 ELISA (FIG. 8F) assays. Epitope abolishment in Mixed gliadins (250 μg/ml) were incubated with NattoK (57 μg/ml) for 0, 15, 30 and 120 min and then assayed by the R5 ELISA or G12 ELISA.
R5 and G12 ELISA assays—Gluten epitope elimination in the gliadin-Rmep and gliadin-subtilisin A digests was assessed using two sandwich ELISA assays employing the R5 monoclonal antibody (RIDASCREEN Gliadin, R-Biopharm, Darmstadt, Germany) or the G12 monoclonal antibody (AgraQuant® ELISA Gluten G12, Romer labs, Union, Mo.). To prevent high background values, the R5 plate wells were blocked with 1% skim milk in PBS prior to incubation with the samples. The assays were performed according to the manufacturers' instructions and as described (21, 24).
To further investigate this, the time courses of degradation of mixed gliadins and the highly immunogenic 33-mer α-gliadin peptide were determined. Furthermore, epitope elimination was monitored by two ELISA assays employing the R5 antibody recognizing QQPFP (SEQ ID NO: 40) and related pentapeptides (27, 28) and the G12 antibody recognizing QPQLPY (SEQ ID NO: 22) contained in the 33-mer peptide (29, 30). Data obtained with Rmep are shown in FIG. 5, and with subtilisin A in FIG. 6.

[5] = test system: Z-QQP-pNA; test: Hydrolysis of paranitroanilide-derivatized substrate Z-QQP-pNA; assay type: biochemical; conditions: substrate 200 μM, pH 8.0 (data not shown)
Description: as §2

[6] = test system: mixed gliadins; test: Degradation of mixed gliadins (SDS-PAGE); assay type: biochemical, wheat; conditions: gliadins 250 μg/ml, enzyme 57 μg/ml
Description: FIG. 5A is a representative SDS-PAGE gel of non-digested gliadins (control) and Rmep-treated gliadins. Gliadins (250 μg/ml) in 50 mM Tris/HCl pH 8.0 were incubated with Rmep at 57 μg/ml. After 0, 15 min, 30 min and 2 h incubation 100 μl aliquots were removed, boiled and analyzed by SDS-PAGE and stained with COOMASSIE Brilliant Blue. The bold arrow (left) points to the position of the major band in the gliadin preparation; the thin arrow (right) to the 125 kDa band in the Rmep preparation, and the dotted arrows (right) to the gliadin degradation fragments.
FIG. 6A is a representative SDS-PAGE gel of non-digested gliadins (control) and subtilisin A-treated gliadins. Gliadins (250 μg/ml) in 50 mM Tris/HCl pH 8.0 were incubated with subtilisin A at 57 μg/ml. Experiments were conducted as described in the legend of FIG. 5 with subtilisin A instead of Rmep.
FIG. 8A is a representative SDS-PAGE gel of non-digested gliadins (control) and NattoK-treated gliadins. Mixed gliadins (G, 250 μg/ml) were incubated with NattoK (57 μg/ml) for 0, 15, 30 and 120 min. Left four lanes: controls without enzyme or gliadins, respectively, each at t=0 and 120 min. Arrow points to the major components in the gliadin mixture represented by α and γ-gliadins containing most of the immunogenic epitopes.
Degradation of mixed gliadins and the 33-mer peptide—Mixed gliadins were obtained from Sigma. A synthetic highly immunogenic α-gliadin derived 33-mer peptide (26) was synthesized at a purity of >90% (21st Century Biochemicals). Mixed gliadins or the 33-mer peptide (each at final concentration 250 μg/ml) were incubated with Rmep or subtilisin A (each at 57 μg/ml) in 50 mM TrisHCl, pH 8.0. After t=0, 15 min, 30 min, and 2 h, 100 μl sample aliquots were removed and boiled. Gliadin degradation was assessed by 4-12% SDS-PAGE followed by Coomassie staining, and 33-mer degradation was determined by RP-HPLC.

Row | decrease of G12 antibody binding after 30 min ([4]; 30 min) [%] | reduction of G12 antibody binding / G12 epitope degradation after 2 h [4] [%] | Molecule | hydrolysis of Suc-AAPF-pNA [1] | hydrolysis of Z-LPY-pNA [2] | hydrolysis of Z-YPQ-pNA [3] | hydrolysis of Z-QQP-pNA [5] | incubation time within which mixed gliadins were degraded ([6]; 50 mM TrisHCl pH 8.0) [min] | G12 epitope degradation at t=0 ([4]; t=0) [%] | degradation of mixed gliadins in the t=0 sample ([6]; pH 8.0, t=0)
1 | 65 | 85 | Rmep: DEAE pooled fraction F2 of R. mucilaginosa ATCC 25296 extract with highest gluten-degrading enzyme activity; contains subtilisins C6R5V9_9MICC and C6R5W1_9MICC | cleaved most rapidly | could be demonstrated | cleaved | not hydrolyzed | ≤ 15 |  | 
2 |  | 45 | subtilisin A: subtilisin A from Bacillus licheniformis (Sigma) (protein, listed as Bacillus licheniformis) MMRKKSFWLGMLTAFMLVFTMAFSDSASAAQPAKNVEKDYIVGFKSGVKTASVKKDIIKESGGKVDKQFRIINAAKAKLDKEALKEVKNDPDVAYVEEDHVAHALAQTVPYGIPLIKADKVQAQGFKGANVKVAVLDTGIQASHPDLNVVGGASFVAGEAYNTDGNGHGTHVAGTVAALDNTTGVLGVAPSVSLYAVKVLNSSGSGTYSGIVSGIEWATTNGMDVINMSLGGPSGSTAMKQAVDNAYARGVVVVAAAGNSGSSGNTNTIGYPAKYDSVIAVGAVDSNSNRASFSSVGAELEVMAPGAGVYSTYPTSTYATLNGTSMASPHVAGAAALILSKHPNLSASQVRNRLSSTATYLGSSFYYGKGLINVEAAAQ | cleaved most rapidly | could be demonstrated | cleaved | not hydrolyzed |  | 22 | near complete degradation
